Here are results for 6 compounds from patent US8669265B2, “Hydrated form of erlotinib free base and a process for preparation of erlotinib hydrochloride polymorph form a substantially free of polymorph form B” (Hetero Research Foundation, priority 2007, dated 2014).

Data set [1] can be described thus: Hygroscopicity and storage stability of the crystalline form (stated in words). The data set is classed as physicochemical.
A short description of data set [2]: Particle size distribution by laser diffraction (Sympatec Helos, 1 bar dispersive pressure). Format: physicochemical. The settings on record: isolated crystalline product of the example; hydrochloride. An excerpt:
The term “Particle Size Distribution (P.S.D.)” means the cumulative volume size distribution of equivalent spherical diameters as determined by laser diffraction at 1 bar dispersive pressure in a Sympatec Helos equipment. “Mean particle size distribution, i.e., d(0.5)” correspondingly, means the median of said particle size distribution.

Consider `C#Cc1cccc(Nc2ncnc3cc(OCCOC)c(OCCOC)cc23)c1.Cl` [N-(3-ethynylphenyl)-6,7-bis(2-methoxyethoxy)-4-quinazolinamine hydrochloride], for which, in data set [1], the Storage stability entry is “stable over the time”. For `C#Cc1cccc(Nc2ncnc3cc(OCCOC)c(OCCOC)cc23)c1.Cl` [Example 6, N-(3-ethynylphenyl)-6,7-bis(2-methoxyethoxy)-4-quinazolinamine hydrochloride], in data set [2], the “90 volume-% of the particles (D90)” value amounted to 18.96 μm and the “Mean particle size (D50)” value came out at 5.48 μm.

Regarding `C#Cc1cccc(Nc2ncnc3cc(OCCOC)c(OCCOC)cc23)c1.Cl` [Reference Example 2, N-(3-ethynylphenyl)-6,7-bis(2-methoxyethoxy)-4-quinazolinamine hydrochloride], the “90 volume-% of the particles (D90)” value in data set [2] is on record as 7.74 μm. As to `C#Cc1cccc(Nc2ncnc3cc(OCCOC)c(OCCOC)cc23)c1` [crystalline erlotinib hydrate, erlotinib hydrate], in data set [1], the Hygroscopicity result is recorded as “non-hygroscopic” and the Storage stability result is listed as “storage stable over the time”. `C#Cc1cccc(Nc2ncnc3cc(OCCOC)c(OCCOC)cc23)c1.Cl` [Reference Example 1, N-(3-ethynylphenyl)-6,7-bis(2-methoxyethoxy)-4-quinazolinamine hydrochloride]: in data set [2], the “90 volume-% of the particles (D90)” value is reported as 4.53 μm and the “Mean particle size (D50)” value was found to be 3.42 μm. For `C#Cc1cccc(Nc2ncnc3cc(OCCOC)c(OCCOC)cc23)c1.Cl` [Reference Example 5, N-(3-ethynylphenyl)-6,7-bis(2-methoxyethoxy)-4-quinazolinamine hydrochloride], in that order: 4.61 μm and 3.50 μm.
